Here are results for one compound from article PMC8056384 (ACS Chemical Biology, 2021).

Assay [1] deals with T1, hGALK1 (Homo sapiens, UniProt P51570, E253A/K252A).
T1 construct: A hGALK1 construct, encoding full-length protein harboring the surface entropy[41] mutations K252A:E253A; His6 (N); made in house; host or cells: E. coli BL21(DE3)
In words: Kinase-Glo luminescent hGALK1 activity assay. The assay is classed as biochemical. Also noted: Vmaxapp, substrate galactose, with ligand (+) / Kmapp, substrate galactose, with ligand (+): unit not given here. On the procedure:
hGALK1 activity in vitro was determined using the Kinase-Glo luminescent kinase assay (Promega), according to the manufacturer’s protocol. […] Following a 1-h RT incubation, 10 μL of Kinase-Glo Plus detection reagent was added (final assay volume: 20 μL/well), and after a further 20 minutes RT incubation, luminescence was detected using a Pherastar FSX plate reader (BMG Labtech) containing a luminescence optics module. […] All reactions were performed in technical triplicates for two different preparations of hGALK1.
Data were plotted using GraphPad Prism software; curve fitting was performed with a nonlinear least-squares regression fit to the mixed, competitive, noncompetitive, and uncompetitive inhibition models from the GraphPad Prism enzyme kinetics–inhibition equations and the best fit selected by comparison of Akaike’s Information Criterion (AICc) probability scores and extra sum-of-squares F test P values calculated by the software.
Background: Kinase-Glo reads ATP consumption through a luciferase reaction.

The target in assay [2] is T1, hGALK1. The experiment in a line: Amplex Red fluorescence-based hGALK1 activity assay (coupled with galactose oxidase). Format: biochemical. Also on record: Vmaxapp, substrate ATP, with ligand (+) / Kmapp, substrate ATP, with ligand (+): unit not given here. An excerpt: Consequently, to confirm the mode of inhibition of the spiro-benzoxazole inhibitors with respect to ATP, we adopted the Amplex Red fluorescence-based assay[33],[34] by coupling the hGALK1 reaction with D. dendroides galactose oxidase (GAO; EC 1.1.3.9) to measure the level of galactose remaining after being depleted as a substrate for hGALK1. In this method, hydrogen peroxide generated by the oxidation of galactose by GAO is used by horseradish peroxidase to convert the nonfluorescent substrate Amplex Red into its highly fluorescent product resorufin; therefore, the resultant fluorescent signal is inversely proportional to hGALK1 enzyme activity. We optimized several parameters of this assay to allow measurement of hGALK1 activity for the first time (Figure S3; Supplementary Results).
The Amplex Red assay reagent contained horseradish peroxidase (EC 1.11.1.7, 0.2 U/mL), its substrate Amplex Red (10-acetyl-3,7-dihydroxyphenoxazine, 100 μM), and galactose oxidase (EC 1.1.3.9, 4 U/mL). The assay buffer used was the same as in the Kinase-Glo assay. […] Amplex Red reagent was added at a 1:1 volume to the hGALK1 reaction after 1-h incubation at RT. Fluorescence emission was measured at 585 nm, with excitation at 570 nm, after a further incubation period of 40 minutes, using a Pherastar FSX plate reader with a FI 540 590 optics module. Reactions were performed in technical triplicates for two biological replicates, and data were plotted and fitted as described for the Kinase-Glo assay except that the reaction rate, defined as total galactose consumed over the 1-h hGALK1 reaction, was determined using the following equation, where Fluorreaction = mean value of measured fluorescence of each reaction and Fluor50 = measured fluorescence with no galactose (i.e., fluorescence of 50 μM galactose): [drawing 2]

For assay [3], the target named is T1, hGALK1. The experiment in a line: Surface plasmon resonance (SPR) binding assay. The following applies: hGALK1 immobilized on CM5 chip, analyte 0.195–200 μM, n = 1. On the procedure:
Purified hGALK1 (30 μg/mL), diluted in acetate buffer at pH 5, was attached via covalent coupling to a density of 13000 RU on a CM5 chip. The assay buffer was 50 mM sodium phosphate, pH 7.5, 200 mM NaCl, 0.5 mM TCEP, 5% DMSO, and 0.05% TWEEN20. A serial dilution (11 concentrations) was prepared in the above buffer for each analyte (3, 11–13) by 1:1 dilution from 200 μM to 0.195 μM, and the subsequent solutions were passed over the chip at a flow rate of 30 μL/min. Data are from an n = 1 experiment.
(SPR reads the build-up and loss of mass on a sensor chip optically.)

Assay [4] deals with T2, hGALK2 (Homo sapiens, UniProt Q01415).
T2 construct: Constructs encoding full-length hGALK2 (Met1-Ala458) and hMVK (Met1-Leu396); His6-Strep-Strep tag followed by TEV protease cleavage site (N); made in house; host or cells: E. coli BL21(DE3)
T2 sequence (Q01415 1-458): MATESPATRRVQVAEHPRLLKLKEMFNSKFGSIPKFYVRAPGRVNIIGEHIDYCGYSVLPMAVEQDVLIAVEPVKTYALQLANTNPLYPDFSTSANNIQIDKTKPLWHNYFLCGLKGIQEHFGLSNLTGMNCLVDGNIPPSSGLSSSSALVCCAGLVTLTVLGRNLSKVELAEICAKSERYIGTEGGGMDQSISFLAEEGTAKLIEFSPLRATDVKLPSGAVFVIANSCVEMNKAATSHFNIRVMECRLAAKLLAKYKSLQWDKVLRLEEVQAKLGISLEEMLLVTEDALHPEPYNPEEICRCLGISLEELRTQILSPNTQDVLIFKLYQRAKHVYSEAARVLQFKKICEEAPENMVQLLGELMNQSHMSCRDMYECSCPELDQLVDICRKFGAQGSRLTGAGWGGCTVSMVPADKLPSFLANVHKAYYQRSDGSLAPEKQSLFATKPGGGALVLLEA
The experiment in a line: Kinase-Glo hGALK2 activity assay. The following applies: 1 mM compound. The assay is classed as biochemical. On the procedure: (§1) hGALK1 activity in vitro was determined using the Kinase-Glo luminescent kinase assay (Promega), according to the manufacturer’s protocol. […] Similarly, hGALK2 activity and inhibition was measured with reactions containing 50 nM hGALK2, 100 μM N-acetylgalactosamine, and 35 μM ATP in the above-described buffer and hMVK activity and inhibition was measured with reactions containing 250 nM hMVK, 100 μM mevalonate, and 35 μM ATP in the above-described buffer. Following a 1-h RT incubation, 10 μL of Kinase-Glo Plus detection reagent was added (final assay volume: 20 μL/well), and after a further 20 minutes RT incubation, luminescence was detected using a Pherastar FSX plate reader (BMG Labtech) containing a luminescence optics module. To determine the inhibition mode with respect to galactose, 10 nM hGALK1 and 35 μM ATP in an assay buffer was added to an array of six fragment (0–15 mM) or 12 compound (0–2 mM) concentrations against six galactose concentrations (0–250 μM), with a final reaction volume of 10 μL/well dispensed into 384-well assay plates (Greiner), and measured as described above. All reactions were performed in technical triplicates for two different preparations of hGALK1. Reaction rate, defined as total ATP consumed over the 1-h hGALK1 reaction, was determined using the following equation, where Lumreaction = mean value of measured luminescence of each reaction and Lum35 = measured luminescence with no galactose (i.e., luminescence of 35 μM ATP): [drawing 1]

Assay [5] addresses T3, hMVK (Homo sapiens, UniProt Q03426).
T3 construct: Constructs encoding full-length hGALK2 (Met1-Ala458) and hMVK (Met1-Leu396); His6-Strep-Strep tag followed by TEV protease cleavage site (N); made in house; host or cells: E. coli BL21(DE3)
In words: Kinase-Glo hMVK activity assay. The assay is classed as biochemical. Conditions: 1 mM compound. On the procedure: as §1

[6] abbreviates: 35 µM ATP, maximum tested concentration: 1 mM T1, 15 mM fragment 3, 2 mM 11–13.
[7] abbreviates: concentration achieving 50% inhibition, IC50 not determinable, lower potency.
Setting [8] is: 50 µM galactose, maximum tested concentration: 1 mM T1, 15 mM fragment 3, 2 mM 11–13.

Where “and” joins values, the source holds several entries; their conditions need not be identical. Equal entries are not always repeated. Where only a bound is given, the exact number is not on record here.

T1 sequence (P51570 whole entry K252A/E253A): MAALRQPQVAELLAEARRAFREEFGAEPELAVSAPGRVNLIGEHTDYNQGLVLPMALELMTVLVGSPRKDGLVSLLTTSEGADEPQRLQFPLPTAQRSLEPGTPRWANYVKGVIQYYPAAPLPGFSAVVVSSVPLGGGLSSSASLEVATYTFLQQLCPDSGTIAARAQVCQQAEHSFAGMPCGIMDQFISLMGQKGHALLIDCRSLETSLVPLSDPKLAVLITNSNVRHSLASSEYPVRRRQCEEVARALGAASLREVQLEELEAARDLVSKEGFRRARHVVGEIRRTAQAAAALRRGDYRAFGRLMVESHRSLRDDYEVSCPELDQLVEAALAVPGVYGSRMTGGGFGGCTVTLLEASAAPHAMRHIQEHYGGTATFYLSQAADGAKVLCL
T3 sequence (Q03426 whole entry): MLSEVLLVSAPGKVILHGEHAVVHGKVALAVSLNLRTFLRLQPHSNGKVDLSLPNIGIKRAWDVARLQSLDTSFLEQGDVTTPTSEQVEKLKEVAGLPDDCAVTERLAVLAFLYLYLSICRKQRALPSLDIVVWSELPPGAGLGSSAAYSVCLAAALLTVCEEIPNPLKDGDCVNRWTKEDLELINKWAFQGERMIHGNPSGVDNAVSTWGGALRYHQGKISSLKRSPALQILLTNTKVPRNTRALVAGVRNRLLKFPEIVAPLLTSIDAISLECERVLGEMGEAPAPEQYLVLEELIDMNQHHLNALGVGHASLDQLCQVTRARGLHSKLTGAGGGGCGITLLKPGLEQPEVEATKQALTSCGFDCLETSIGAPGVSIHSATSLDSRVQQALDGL

Turning to `COc1ccc(Cl)cc1C(=O)NC1CCN(c2ncccn2)CC1` [compound 13], the “mode of inhibition with respect to galactose” value in assay [1] (35 μM ATP, 0–250 μM galactose, best-fit model in GraphPad Prism) is reported as “mixed”. Moreover, the “Kmapp, substrate galactose, with ligand (+)” value in assay [1] (setting [6]) was determined as 143.6 ± 7.6. Moreover, the “Vmaxapp, substrate galactose, with ligand (+)” value in assay [1] (setting [6]) is listed as 4.4 ± 0.4. Also, the inhibition at 2000 µM in assay [1] (2 mM compound) and in assay [2] (2 mM compound) was over 50% in each case. Also, the IC50 in assay [1] (setting [7]) and in assay [2] (setting [7]) was about 1000 µM throughout. Moreover, the “mode of inhibition with respect to ATP” value in assay [2] (50 μM galactose, 0–250 μM ATP, best-fit model in GraphPad Prism) was “noncompetitive”. Also, in assay [2] (setting [8]), the “Kmapp, substrate ATP, with ligand (+)” value was 46.5 ± 4.5. For the same compound, the “Vmaxapp, substrate ATP, with ligand (+)” value in assay [2] (setting [8]) was 14.7 ± 3.0. Further, the Kd (in general, the equilibrium constant for the complex coming apart) in assay [3] was ~200 µM and ~203 µM. For the same compound, the inhibition at 1000 µM in assay [4] and in assay [5] was under 10% each time.
